Laboratory results from patent publication US10092551B2, “Spiro-thiazolones” (Hoffmann-La Roche Inc., priority 2014, dated 2018).
Structures can show the parent of a compound that is named as a salt.

Target: human V1a receptor (Homo sapiens (Human), UniProt P37288)
Experiment: human V1a receptor binding studies (3H-Vasopressin, SPA beads)
Details: membranes of HEK293 cells transiently transfected with human V1a receptor, Ki by Cheng-Prussoff
How it was run: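 Membranes from HEK293 cells transiently expressing cloned human V1a receptor, bound on yttrium silicate SPA beads with 4 nM 3H-vasopressin (added stock) and serially diluted compound, 1 h at room temperature. Non-specific binding defined with cold vasopressin; IC50 by non-linear regression, Ki via Cheng-Prusoff.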

Sequence of human V1a receptor (P37288 whole entry): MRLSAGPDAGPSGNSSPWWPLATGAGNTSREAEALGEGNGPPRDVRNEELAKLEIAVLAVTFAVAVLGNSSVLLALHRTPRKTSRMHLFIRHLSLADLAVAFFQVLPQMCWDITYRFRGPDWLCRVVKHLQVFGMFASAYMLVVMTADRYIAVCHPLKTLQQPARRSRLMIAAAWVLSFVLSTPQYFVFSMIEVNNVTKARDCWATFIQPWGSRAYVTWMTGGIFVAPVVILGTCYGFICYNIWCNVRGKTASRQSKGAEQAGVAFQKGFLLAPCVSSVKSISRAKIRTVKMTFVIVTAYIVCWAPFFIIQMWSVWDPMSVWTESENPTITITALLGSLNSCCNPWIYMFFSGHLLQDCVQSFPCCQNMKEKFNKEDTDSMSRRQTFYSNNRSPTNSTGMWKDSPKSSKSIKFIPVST

Row | Structure (SMILES) | pKi hV1a | Ki (read-out: pKi hV1a (converted)) [nM]
1 | CC(C)(C)[Si](C)(C)OC/C(=C1\SC(N2CCC3(CC2)OCc2ccccc23)=NC1=O)c1ccc(Cl)nc1 [Example 131, (5Z)-5-[2-{[tert-butyl(dimethyl)silyl]oxy}-1-(6-chloropyridin-3-yl)ethylidene]-2-(1′H,3H-spiro[2-benzofuran-1,4′-piperidin]-1′-yl)-1,3-thiazol-4(5H)-one] | 7.8 | –
2 | CC(C)(C)OC(=O)N1CCC/C(=C2/SC(N3CCC4(CC3)OCc3ccccc34)=NC2=O)C1 [Example 88, tert-butyl (3E/Z)-3-[4-oxo-2-(1′H,3H-spiro[2-benzofuran-1,4′-piperidin]-1′-yl)-1,3-thiazol-5(4H)-ylidene]piperidine-1-carboxylate] | 6.7 | –
3 | [2H]C([2H])([2H])/C(=C1\SC(N2CCC3(CC2)OCc2ccccc23)=NC1=O)c1ccc(Cl)nc1 [Example 172] | 8.9 | –
4 | C/C(=C1/SC(N2CCC3(CC2)OCc2ccccc23)=NC1=O)c1ccccc1Cl [Example 14, (5E/Z)-5-[1-(2-chlorophenyl)ethylidene]-2-(1′H,3H-spiro[2-benzofuran-1,4′-piperidin]-1′-yl)-1,3-thiazol-4(5H)-one] | 8.5 | –
5 | C/C(=C1/SC(N2CCC3(CC2)OCc2ccccc23)=NC1=O)c1cnn(C)c1 [Example 62, (5Z)-5-[1-(1-methyl-1H-pyrazol-4-yl)ethylidene]-2-(1′H,3H-spiro[2-benzofuran-1,4′-piperidin]-1′-yl)-1,3-thiazol-4(5H)-one] | 8.3 | –
6 | COCC(COC)=C1SC(N2CCC3(CC2)OCc2ncccc23)=NC1=O [Example 163, 5-(1,3-dimethoxypropan-2-ylidene)-2-(1′H,7H-spiro[furo[3,4-b]pyridine-5,4′-piperidin]-1′-yl)-1,3-thiazol-4(5H)-one] | 7.0 | –
7 | C/C(=C1/SC(N2CCC3(CC2)OCc2ccccc23)=NC1=O)c1ccncc1 [Example 33, (5Z)-5-[1-(pyridin-4-yl)ethylidene]-2-(1′H,3H-spiro[2-benzofuran-1,4′-piperidin]-1′-yl)-1,3-thiazol-4(5H)-one] | 8.3 | –
8 | C/C(=C1/SC(N2CCC3(CC2)OC(=O)c2ccccc23)=NC1=O)c1ccc(C)nc1 [Example 135, 1′-{(5Z)-5-[1-(6-methylpyridin-3-yl)ethylidene]-4-oxo-4,5-dihydro-1,3-thiazol-2-yl}-3H-spiro[2-benzofuran-1,4′-piperidin]-3-one] | 7.9 | –
9 | O=C1N=C(N2CCC3(CC2)OCc2ccccc23)SC1=C1CCOCC1 [Example 44, 2-(1′H,3H-spiro[2-benzofuran-1,4′-piperidin]-1′-yl)-5-(tetrahydro-4H-pyran-4-ylidene)-1,3-thiazol-4(5H)-one] | 8.1 | –
10 | [2H]C([2H])([2H])/C(=C1/SC(N2CCC3(CC2)OCc2ccccc23)=NC1=O)c1ccccc1 [Example 173, (5Z)-5-[1-phenyl(^2H3)ethylidene]-2-(1′H,3H-spiro[2-benzofuran-1,4′-piperidin]-1′-yl)-1,3-thiazol-4(5H)-one] | 8.8 | –
11 | C/C(=C1/SC(N2CCC3(CC2)OCc2ccccc23)=NC1=O)c1ccc(Cl)cc1 [Example 1, (5E/Z)-5-[1-(4-chlorophenyl)ethylidene]-2-(1′H,3H-spiro[2-benzofuran-1,4′-piperidin]-1′-yl)-1,3-thiazol-4(5H)-one] | 8.9 | –
12 | C/C(=C1\SC(N2CCC3(CC2)OCc2ccccc23)=NC1=O)c1ccc(C)nc1 [Example 153, (5E)-5-[1-(6-methylpyridin-3-yl)ethylidene]-2-(1′H,3H-spiro[2-benzofuran-1,4′-piperidin]-1′-yl)-1,3-thiazol-4(5H)-one] | 8.3 | –
13 | C/C(=C1\SC(N2CCC3(CC2)OCc2ccccc23)=NC1=O)c1ccccc1F [Example 56, (5E)-5-[1-(2-fluorophenyl)ethylidene]-2-(1′H,3H-spiro[2-benzofuran-1,4′-piperidin]-1′-yl)-1,3-thiazol-4(5H)-one] | 8.3 | –
14 | CC(C)(C)[Si](C)(C)OC/C(=C1/SC(N2CCC3(CC2)OCc2ccccc23)=NC1=O)c1ccc(Cl)nc1 [Example 129, (5E)-5-[2-{[tert-butyl(dimethyl)silyl]oxy}-1-(6-chloropyridin-3-yl)ethylidene]-2-(1′H,3H-spiro[2-benzofuran-1,4′-piperidin]-1′-yl)-1,3-thiazol-4(5H)-one] | 8.2 | –
15 | O=C1N=C(N2CCC3(CC2)OCc2ccccc23)S/C1=C(\CO)c1ccccc1 [Example 127, (5Z)-5-(2-hydroxy-1-phenylethylidene)-2-(1′H,3H-spiro[2-benzofuran-1,4′-piperidin]-1′-yl)-1,3-thiazol-4(5H)-one] | 9.0 | –
16 | O=C1N=C(N2CCC3(CC2)OCc2ccccc23)S/C1=C1/C(=O)Nc2ccccc21 [Example 74, (3E/Z)-3-[4-oxo-2-(1′H,3H-spiro[2-benzofuran-1,4′-piperidin]-1′-yl)-1,3-thiazol-5(4H)-ylidene]-1,3-dihydro-2H-indol-2-one] | 7.5 | –

Row | Structure (SMILES) | pKi hV1a | Ki (read-out: pKi hV1a (converted)) [nM]
17 | C/C(=C1/SC(N2CCC3(CC2)OCc2ccccc23)=NC1=O)c1ccccc1 [Example 151, (5Z)-5-(1-phenylethylidene)-2-(1′H,3H-spiro[2-benzofuran-1,4′-piperidin]-1′-yl)-1,3-thiazol-4(5H)-one] | 9.2 | –
18 | O=C1N=C(N2CCC3(CC2)OCc2ccccc23)SC1=C(c1ccc[nH]1)c1ccc[nH]1 [Example 122, 5-(di-1H-pyrrol-2-ylmethylidene)-2-(1′H,3H-spiro[2-benzofuran-1,4′-piperidin]-1′-yl)-1,3-thiazol-4(5H)-one] | 9.0 | –
19 | COC1CCCC/C1=C1/SC(N2CCC3(CC2)OCc2ncccc23)=NC1=O (centres unmarked) [Example 164, (5E/Z)-5-(2-methoxycyclohexylidene)-2-(1′H,7H-spiro[furo[3,4-b]pyridine-5,4′-piperidin]-1′-yl)-1,3-thiazol-4(5H)-one] | 6.9 | –
20 | C/C(=C1/SC(N2CCC3(CC2)OCc2ccccc23)=NC1=O)c1ccc(Cl)cc1 [Example 26, (5Z)-5-[1-(4-chlorophenyl)ethylidene]-2-(1′H,3H-spiro[2-benzofuran-1,4′-piperidin]-1′-yl)-1,3-thiazol-4(5H)-one] | 9.2 | –
21 | CC(C)/C(=C1\SC(N2CCC3(CC2)OCc2ccccc23)=NC1=O)c1ccc(Cl)nc1 [Example 132, (5E)-5-[1-(6-chloropyridin-3-yl)-2-methylpropylidene]-2-(1′H,3H-spiro[2-benzofuran-1,4′-piperidin]-1′-yl)-1,3-thiazol-4(5H)-one] | 7.8 | –
22 | O=C1N=C(N2CCC3(CC2)OC(=O)c2ccccc23)S/C1=C(\CO)c1ccc(Cl)nc1 [Example 147, 1′-{(5Z)-5-[1-(6-chloropyridin-3-yl)-2-hydroxyethylidene]-4-oxo-4,5-dihydro-1,3-thiazol-2-yl}-3H-spiro[2-benzofuran-1,4′-piperidin]-3-one] | 8.0 | –
23 | C/C(=C1/SC(N2CCC3(CC2)OCc2ncccc23)=NC1=O)c1oc(C)nc1C [Example 167, (5E/Z)-5-[1-(2,4-dimethyl-1,3-oxazol-5-yl)ethylidene]-2-(1′H,7H-spiro[furo[3,4-b]pyridine-5,4′-piperidin]-1′-yl)-1,3-thiazol-4(5H)-one] | 6.5 | –
24 | C/C(=C1/SC(N2CCC3(CC2)OCc2ccccc23)=NC1=O)c1ccccn1 [Example 38, (5Z)-5-[1-(pyridin-2-yl)ethylidene]-2-(1′H,3H-spiro[2-benzofuran-1,4′-piperidin]-1′-yl)-1,3-thiazol-4(5H)-one] | 8.8 | –
25 | CC(C)(C)OC(=O)N1CCC(=C2SC(N3CCC4(CC3)OCc3ccccc34)=NC2=O)CC1 [Example 41, tert-butyl 4-[4-oxo-2-(1′H,3H-spiro[2-benzofuran-1,4′-piperidin]-1′-yl)-1,3-thiazol-5(4H)-ylidene]piperidine-1-carboxylate] | 7.6 | –
26 | C/C(=C1/SC(N2CCC3(CC2)OCc2ccccc23)=NC1=O)C1CC1 [Example 42, (5E/Z)-5-(1-cyclopropylethylidene)-2-(1′H,3H-spiro[2-benzofuran-1,4′-piperidin]-1′-yl)-1,3-thiazol-4(5H)-one] | 8.4 | –
27 | C/C(=C1/SC(N2CCC3(CC2)OCc2ccccc23)=NC1=O)c1cccnc1 [Example 39, (5Z)-5-[1-(pyridin-3-yl)ethylidene]-2-(1′H,3H-spiro[2-benzofuran-1,4′-piperidin]-1′-yl)-1,3-thiazol-4(5H)-one] | 8.9 | –
28 | CC/C(=C1/SC(N2CCC3(CC2)OC(=O)c2ccccc23)=NC1=O)c1ccc(Cl)nc1 [Example 150, 1′-{(5Z)-5-[1-(6-chloropyridin-3-yl)propylidene]-4-oxo-4,5-dihydro-1,3-thiazol-2-yl}-3H-spiro[2-benzofuran-1,4′-piperidin]-3-one] | 9.0 | –
29 | C/C(=C1/SC(N2CCC3(CC2)OC(=O)c2ccccc23)=NC1=O)c1ccccc1 [Example 156, 1′-[(5Z)-4-oxo-5-(1-phenylethylidene)-4,5-dihydro-1,3-thiazol-2-yl]-3H-spiro[2-benzofuran-1,4′-piperidin]-3-one] | 9.3 | –
30 | CC/C(=C1\SC(N2CCC3(CC2)OCc2ccccc23)=NC1=O)c1ccncc1 [Example 32, (5E)-5-[1-(pyridin-4-yl)propylidene]-2-(1′H,3H-spiro[2-benzofuran-1,4′-piperidin]-1′-yl)-1,3-thiazol-4(5H)-one] | 7.9 | –
31 | NCC(=C1SC(N2CCC3(CC2)OCc2ccccc23)=NC1=O)c1ccccc1 (racemic) [Example 160, (5E/Z)-5-(2-amino-1-phenylethylidene)-2-(1′H,3H-spiro[2-benzofuran-1,4′-piperidin]-1′-yl)-1,3-thiazol-4(5H)-one trifluoroacetate] | – | 5.01
32 | C/C(=C1/SC(N2CCC3(CC2)OCc2ccccc23)=NC1=O)C1CCOCC1 [Example 78, (5E/Z)-2-(1′H,3H-spiro[2-benzofuran-1,4′-piperidin]-1′-yl)-5-[1-(tetrahydro-2H-pyran-4-yl)ethylidene]-1,3-thiazol-4(5H)-one] | 7.9 | –
